Test results as given in patent US20260356840A1, “[1,2,4]TRIAZOLO[1,5-A]PYRIMIDINONE WRN INHIBITORS” (Nimbus Wadjet, Inc., priority 2023, published 2026).

biological target: T1, human Werner helicase (Uniprot Q14191, amino acids 517-1235 with L1074F point mutation), WRN-BV08 (Homo sapiens, UniProt Q14191, L1074F); assay: WRN (BV08) ADP-Glo Assay; assay type: biochemical
T1 construct: Uniprot Q14191, amino acids 517-1235 with L1074F point mutation; TEV cleavable 8xHis tag (C, cleaved yes); made in house; host or cells: Sf9 insect cells (baculovirus, pFastBac)
T1 sequence (Q14191 517-1235 L1074F): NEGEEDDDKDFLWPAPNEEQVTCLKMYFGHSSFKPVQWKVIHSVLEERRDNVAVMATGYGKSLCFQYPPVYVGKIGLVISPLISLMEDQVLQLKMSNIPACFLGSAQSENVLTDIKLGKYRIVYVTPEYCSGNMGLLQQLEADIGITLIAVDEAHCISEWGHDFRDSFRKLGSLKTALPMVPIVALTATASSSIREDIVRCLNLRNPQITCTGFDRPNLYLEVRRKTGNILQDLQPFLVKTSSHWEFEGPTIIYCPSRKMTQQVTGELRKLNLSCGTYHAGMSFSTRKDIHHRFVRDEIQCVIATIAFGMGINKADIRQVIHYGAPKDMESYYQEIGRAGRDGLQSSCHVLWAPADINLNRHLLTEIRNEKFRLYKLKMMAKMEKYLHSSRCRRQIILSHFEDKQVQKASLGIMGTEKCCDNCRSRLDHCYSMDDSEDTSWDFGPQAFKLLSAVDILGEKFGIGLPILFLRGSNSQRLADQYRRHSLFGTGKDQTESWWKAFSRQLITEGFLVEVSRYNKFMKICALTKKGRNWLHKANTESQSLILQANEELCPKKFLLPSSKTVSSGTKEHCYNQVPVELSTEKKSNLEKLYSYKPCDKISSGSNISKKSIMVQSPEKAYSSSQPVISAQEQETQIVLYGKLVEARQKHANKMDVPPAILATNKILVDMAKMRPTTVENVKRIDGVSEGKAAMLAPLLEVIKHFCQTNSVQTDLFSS
Procedure: DNA duplex was synthesized at BGI (Shenzhen, China) and was composed of strand 1 with the sequence 5′-[…]-3′ (SEQ ID NO.: 1) and strand 2 with the sequence 5′-[…]-3′ (SEQ ID NO.: 2). DNA strands were annealed by heating to 95 °C for 5 minutes followed by slow cooling to room temperature. […] DMSO (0.1 μl) was added to columns 12, rows A-H and column 24, rows I-P for the maximum signal control.
Where RLU=relative luminescence units, sample=signal in sample well, and MIN and MAX are the respective minimum and maximum signal controls. • Four-parameter IC50 fit equation:
Y=Bottom+(Top−Bottom)/(1+(IC50/X)^Hill Slope)
Where top and bottom are normally allowed to float but may be fixed at 100 or 0 respectively in a 3-parameter fit. Y is the % inhibition and X is the compound concentration.
Molecular Biology and virus production. […] The baculovirus from the expression plasmid WRN-BV08 was generated from transfection and amplification following the manufacturer's instructions.
Sf9 cells grown in SF900II media were infected with 1:200 WRN-BV08 P2 virus and incubated for protein expression for 72 h at 27 °C. The WRN protein was purified using the following protocol. The cell pellets were thawed and resuspended in buffer A (50 mM Tris, pH 7.5, 500 mM NaCl, 1 mM TCEP, 10% Glycerol) supplemented with 0.5% CHAPS, 1 mM [COMPOUND LEFT OUT], 1 μg/ml Leupeptin, 1 μg/ml Pepstatin, and the Pierce Universal Nuclease and cocktail tablet. Cleared lysates were loaded onto a Ni Sepharose™ excel column and washed with buffer A and bound protein was eluted with buffer A supplemented with 300 mM imidazole. The eluted protein was dialyzed against buffer A and digested by His-tagged TEV (1:5 ratio) overnight at 4 °C. […] Untagged WRN protein was eluted from the column with buffer A supplemented with 20 mM imidazole, dialyzed overnight into buffer B (50 mM Tris, pH 7.5, 1 mM TCEP, 10% Glycerol) supplemented with 150 mM NaCl and loaded onto a Heparin column. Proteins were eluted with a step gradient of buffer B supplemented with 150 mM, 200 mM, 300 mM and 500 mM NaCl.

| Compound | IC50 [nM] |
| --- | --- |
| CCc1c(N2CCN(C(=O)c3ccnc4cccnc34)CC2)c(=O)n2nc(C3=CCOCC3)nc2n1CC(=O)Nc1ccc(C(F)(F)F)cc1Cl [Compound I-37, N-[2-chloro-4-(trifluoromethyl)phenyl]-2-[2-(3,6-dihydro-2H-pyran-4-yl)-5-ethyl-6-[4-(1,5-naphthyridine-4-carbonyl)piperazin-1-yl]-7-oxo-4H,7H-[1,2,4]triazolo[1,5-a]pyrimidin-4-yl]acetamide] | 5 to 50 |
| CCc1c(N2CCN(C(=O)c3ncn(C)n3)CC2)c(=O)n2nc(-c3ccnc(OC)c3)nc2n1CC(=O)Nc1ccc(C(F)(F)F)cc1Cl [Compound I-73, N-[2-chloro-4-(trifluoromethyl)phenyl]-2-[5-ethyl-2-(2-methoxypyridin-4-yl)-6-[4-(1-methyl-1H-1,2,4-triazole-3-carbonyl)piperazin-1-yl]-7-oxo-4H,7H-[1,2,4]triazolo[1,5-a]pyrimidin-4-yl]acetamide] | 5 to 50 |
| CCc1c(N2CCN(C(=O)c3c(C)nn(C)c3C)CC2)c(=O)n2nc(-c3ccnc(OC)c3)nc2n1CC(=O)Nc1ccc(C(F)(F)F)cc1Cl [Compound I-50, N-[2-chloro-4-(trifluoromethyl)phenyl]-2-[5-ethyl-2-(2-methoxypyridin-4-yl)-7-oxo-6-[4-(1,3,5-trimethyl-1H-pyrazole-4-carbonyl)piperazin-1-yl]-4H,7H-[1,2,4]triazolo[1,5-a]pyrimidin-4-yl]acetamide] | 5 to 50 |
| COc1cc(-c2nc3n(CC(=O)Nc4ccc(C(F)(F)F)cc4Cl)cc(C4CCN(C(=O)c5ncnc(C)c5O)CC4)c(=O)n3n2)ccn1 [Compound I-81, N-[2-chloro-4-(trifluoromethyl)phenyl]-2-{6-[1-(5-hydroxy-6-methylpyrimidine-4-carbonyl)piperidin-4-yl]-2-(2-methoxypyridin-4-yl)-7-oxo-4H,7H-[1,2,4]triazolo[1,5-a]pyrimidin-4-yl}acetamide] | 100 to 500 |
| CCc1c(N2CCN(C(=O)c3ncnc(C)c3O)CC2)c(=O)n2nc(-c3cnn(C4CC4)c3)nc2n1CC(=O)Nc1ccc(C(F)(F)F)cc1Cl [Compound I-32, N-[2-chloro-4-(trifluoromethyl)phenyl]-2-[2-(1-cyclopropyl-1H-pyrazol-4-yl)-5-ethyl-6-[4-(5-hydroxy-6-methylpyrimidine-4-carbonyl)piperazin-1-yl]-7-oxo-4H,7H-[1,2,4]triazolo[1,5-a]pyrimidin-4-yl]acetamide] | 5 to 50 |
| CCc1c(N2CCN(C(=O)c3cnn(C)c3)CC2)c(=O)n2nc(-c3ccnc(OC)c3)nc2n1CC(=O)Nc1ccc(S(F)(F)(F)(F)F)cc1Cl [Compound I-82, N-[2-chloro-4-(pentafluoro-lambda6-sulfanyl)phenyl]-2-[5-ethyl-2-(2-methoxypyridin-4-yl)-6-[4-(1-methyl-1H-pyrazole-4-carbonyl)piperazin-1-yl]-7-oxo-4H,7H-[1,2,4]triazolo[1,5-a]pyrimidin-4-yl]acetamide] | 5 to 50 |
| CCc1c(N2CCN(C(=O)c3cnn(C)c3O)CC2)c(=O)n2nc(C3=CCOCC3)nc2n1CC(=O)Nc1ccc(C(F)(F)F)cc1Cl [Compound I-26, N-[2-chloro-4-(trifluoromethyl)phenyl]-2-[2-(3,6-dihydro-2H-pyran-4-yl)-5-ethyl-6-[4-(5-hydroxy-1-methyl-1H-pyrazole-4-carbonyl)piperazin-1-yl]-7-oxo-4H,7H-[1,2,4]triazolo[1,5-a]pyrimidin-4-yl]acetamide] | 5 to 50 |
| CCc1c(N2CCN(C(C)=O)CC2)c(=O)n2nc(-c3cnc(C(C)(C)O)s3)nc2n1CC(=O)Nc1ccc(C(F)(F)F)cc1Cl [Compound I-87, 2-[6-(4-acetylpiperazin-1-yl)-5-ethyl-2-[2-(2-hydroxypropan-2-yl)-1,3-thiazol-5-yl]-7-oxo-4H,7H-[1,2,4]triazolo[1,5-a]pyrimidin-4-yl]-N-[2-chloro-4-(trifluoromethyl)phenyl]acetamide] | 5 to 50 |
| CCc1c(N2CCN(C(=O)c3ccnc(OC)c3O)CC2)c(=O)n2nc(-c3ccnc(OC)c3)nc2n1CC(=O)Nc1ccc(C(F)(F)F)cc1Cl [Compound I-80, N-[2-chloro-4-(trifluoromethyl)phenyl]-2-{5-ethyl-6-[4-(3-hydroxy-2-methoxypyridine-4-carbonyl)piperazin-1-yl]-2-(2-methoxypyridin-4-yl)-7-oxo-4H,7H-[1,2,4]triazolo[1,5-a]pyrimidin-4-yl}acetamide] | 5 to 50 |
| CCc1c(N2CCN(C(=O)c3cnn(C)c3)CC2)c(=O)n2nc(-c3cc(OC)ccn3)nc2n1CC(=O)Nc1ccc(C(F)(F)F)cc1Cl [Compound I-69, N-[2-chloro-4-(trifluoromethyl)phenyl]-2-[5-ethyl-2-(4-methoxypyridin-2-yl)-6-[4-(1-methyl-1H-pyrazole-4-carbonyl)piperazin-1-yl]-7-oxo-4H,7H-[1,2,4]triazolo[1,5-a]pyrimidin-4-yl]acetamide] | 5 to 50 |
| CCc1c(N2CCN(C(=O)c3cn[nH]n3)CC2)c(=O)n2nc(C3=CCOCC3)nc2n1CC(=O)Nc1ccc(C(F)(F)F)cc1Cl [Compound I-38, N-[2-chloro-4-(trifluoromethyl)phenyl]-2-[2-(3,6-dihydro-2H-pyran-4-yl)-5-ethyl-7-oxo-6-[4-(2H-1,2,3-triazole-4-carbonyl)piperazin-1-yl]-4H,7H-[1,2,4]triazolo[1,5-a]pyrimidin-4-yl]acetamide] | < 5 |

Further lines, results first:

| IC50 [nM] | Compound |
| --- | --- |
| 5 to 50 | CCc1c(N2CCN(C(=O)c3ncnc(C)c3O)CC2)c(=O)n2nc(-c3ccnc(OC)c3)nc2n1CC(=O)Nc1ccc(C(F)(F)F)cc1Cl [Compound I-21, N-[2-chloro-4-(trifluoromethyl)phenyl]-2-{5-ethyl-6-[4-(5-hydroxy-6-methylpyrimidine-4-carbonyl)piperazin-1-yl]-2-(2-methoxypyridin-4-yl)-7-oxo-4H,7H-[1,2,4]triazolo[1,5-a]pyrimidin-4-yl}acetamide] |
| 5 to 50 | CCc1c(N2CCN(C(=O)c3cc(C)ns3)CC2)c(=O)n2nc(-c3ccnc(OC)c3)nc2n1CC(=O)Nc1ccc(C(F)(F)F)cc1Cl [Compound I-76, N-[2-chloro-4-(trifluoromethyl)phenyl]-2-[5-ethyl-2-(2-methoxypyridin-4-yl)-6-[4-(3-methyl-1,2-thiazole-5-carbonyl)piperazin-1-yl]-7-oxo-4H,7H-[1,2,4]triazolo[1,5-a]pyrimidin-4-yl]acetamide] |
| 50 to 100 | CCc1c(N2CCN(C(=O)C(C)(C)C#N)CC2)c(=O)n2nc(C3=CCOCC3)nc2n1CC(=O)Nc1ccc(C(F)(F)F)cc1Cl [Compound I-31, N-[2-chloro-4-(trifluoromethyl)phenyl]-2-{6-[4-(2-cyano-2,2-dimethylacetyl)piperazin-1-yl]-2-(3,6-dihydro-2H-pyran-4-yl)-5-ethyl-7-oxo-4H,7H-[1,2,4]triazolo[1,5-a]pyrimidin-4-yl}acetamide] |
| 5 to 50 | CCc1c(N2CCN(C(=O)c3cnn(C)c3)CC2)c(=O)n2nc(-c3ccnc(OC)n3)nc2n1CC(=O)Nc1ccc(C(F)(F)F)cc1Cl [Compound I-64, N-[2-chloro-4-(trifluoromethyl)phenyl]-2-[5-ethyl-2-(2-methoxypyrimidin-4-yl)-6-[4-(1-methyl-1H-pyrazole-4-carbonyl)piperazin-1-yl]-7-oxo-4H,7H-[1,2,4]triazolo[1,5-a]pyrimidin-4-yl]acetamide] |
| 5 to 50 | CCc1c(N2CCN(C(=O)c3ncnc(C)c3O)CC2)c(=O)n2nc(-c3cc(C)nc(OC)c3)nc2n1CC(=O)Nc1ccc(C(F)(F)F)cc1Cl [Compound I-43, N-[2-chloro-4-(trifluoromethyl)phenyl]-2-{5-ethyl-6-[4-(5-hydroxy-6-methylpyrimidine-4-carbonyl)piperazin-1-yl]-2-(2-methoxy-6-methylpyridin-4-yl)-7-oxo-4H,7H-[1,2,4]triazolo[1,5-a]pyrimidin-4-yl}acetamide] |
| 5 to 50 | CCc1c(N2CCN(C(=O)c3ncnc(C)c3O)CC2)c(=O)n2nc(-c3cnc(OC)c(C)c3)nc2n1CC(=O)Nc1ccc(C(F)(F)F)cc1Cl [Compound I-42, N-[2-chloro-4-(trifluoromethyl)phenyl]-2-{5-ethyl-6-[4-(5-hydroxy-6-methylpyrimidine-4-carbonyl)piperazin-1-yl]-2-(6-methoxy-5-methylpyridin-3-yl)-7-oxo-4H,7H-[1,2,4]triazolo[1,5-a]pyrimidin-4-yl}acetamide] |
| 100 to 500 | CCc1c(N2CCN(C(=O)c3cnn(C)c3)CC2)c(=O)n2nc(-c3nccc(OC)n3)nc2n1CC(=O)Nc1ccc(C(F)(F)F)cc1Cl [Compound I-70, N-[2-chloro-4-(trifluoromethyl)phenyl]-2-[5-ethyl-2-(4-methoxypyrimidin-2-yl)-6-[4-(1-methyl-1H-pyrazole-4-carbonyl)piperazin-1-yl]-7-oxo-4H,7H-[1,2,4]triazolo[1,5-a]pyrimidin-4-yl]acetamide] |
